Data reported in ChEMBL document CHEMBL3885861, “Open TG-GATES”.

Species: Rattus norvegicus
Experiment: Open TG-GATES - Regimen: Daily Repeat
Assay type: toxicity, organism-based, Sprague-Dawley
Set-up: regimen Daily Repeat, gender Male, age 6 weeks
Details: in vivo, iv, route intravenous injection; for KIDNEY_L / KIDNEY_R / KIDNEY_TOTAL: tissue Kidney; for LIVER: tissue Liver
[1] = 0 mg/kg, 72 h, dose level Control, time 3 day
[2] = 0 mg/kg, 72 h, tissue Blood, dose level Control, time 3 day
[3] = 0 mg/kg, 72 h, tissue Plasma, dose level Control, time 3 day
[4] = 0 mg/kg, […], dose level Control, time 7 day
[5] = 0 mg/kg, […], dose level Control, time 14 day
[6] = 0 mg/kg, […], dose level Control, time 28 day
[7] = 0 mg/kg, […], tissue Blood, dose level Control, time 7 day
[8] = 0 mg/kg, […], tissue Blood, dose level Control, time 14 day
[9] = 0 mg/kg, […], tissue Blood, dose level Control, time 28 day
[10] = 0 mg/kg, […], tissue Plasma, dose level Control, time 7 day
[11] = 0 mg/kg, […], tissue Plasma, dose level Control, time 14 day
[12] = 0 mg/kg, […], tissue Plasma, dose level Control, time 28 day
[13] = 1 mg/kg, 72 h, tissue Blood, dose level High, time 3 day
[14] = 1 mg/kg, 72 h, dose level High, time 3 day
[15] = 1 mg/kg, 72 h, tissue Plasma, dose level High, time 3 day
[16] = 1 mg/kg, […], dose level High, time 7 day
[17] = 1 mg/kg, […], dose level High, time 14 day
[18] = 1 mg/kg, […], dose level High, time 28 day
[19] = 1 mg/kg, […], tissue Blood, dose level High, time 7 day
[20] = 1 mg/kg, […], tissue Blood, dose level High, time 14 day
[21] = 1 mg/kg, […], tissue Blood, dose level High, time 28 day
[22] = 1 mg/kg, […], tissue Plasma, dose level High, time 7 day
[23] = 1 mg/kg, […], tissue Plasma, dose level High, time 14 day
[24] = 1 mg/kg, […], tissue Plasma, dose level High, time 28 day

CISPLATIN
TERMINAL_BW [1]: 225.2 g
APTT [2]: 23.7 s
Bas [2]: 0%
Eos [2]: 1%
Fbg [2]: 289.6 mg/dL
Hb [2]: 12.9 g/dL
Ht [2]: 39.8%
Lym [2]: 80.8%
MCV [2]: 63 fL
Mono [2]: 2.6%
Plat [2]: 132.8 x10_4/uL
RBC [2]: 631.8 x10_4/ul
Ret [2]: 5.8%
WBC [2]: 106.8 x10_2/uL
KIDNEY_L [1]: 1 g
KIDNEY_R [1]: 1 g
KIDNEY_TOTAL [1]: 1.9 g
ALP [3]: 1659.4 IU/L
ALT [3]: 40.4 IU/L
BUN [3]: 16.2 mg/dL
CRE [3]: 0.2 mg/dL
DBIL [3]: 0 mg/dL
GLC [3]: 196.6 mg/dL
IP [3]: 6.7 mg/dL
K [3]: 4.2 meq/L
LDH [3]: 219.6 IU/L
PL [3]: 136 mg/dL
RALB [3]: 2.9 g/dL
TBIL [3]: 0.004 mg/dL
TC [3]: 69.4 mg/dL
TG [3]: 113.4 mg/dL
TP [3]: 5.4 g/dL
gamma-GTP [3]: 1.6 IU/L
TERMINAL_BW [4]: 261.4 g
TERMINAL_BW [5]: 291.7 g
TERMINAL_BW [6]: 381.4 g
APTT [7]: 24.4 s
Bas [7]: 0%
Eos [7]: 1%
Fbg [7]: 309.2 mg/dL
Ht [7]: 40.3%
Lym [7]: 80%
MCHC [7]: 32.7%
MCV [7]: 63.8 fL
Mono [7]: 2.4%
PT [7]: 16.1 s
Plat [7]: 128.5 x10_4/uL
RBC [7]: 632.6 x10_4/ul
Ret [7]: 5.5%
WBC [7]: 155.9 x10_2/uL
APTT [8]: 23.9 s
Bas [8]: 0%
Eos [8]: 0.8%
Fbg [8]: 345.4 mg/dL
Ht [8]: 41.9%
Lym [8]: 80.8%
MCHC [8]: 33%
MCV [8]: 60.9 fL
Mono [8]: 2.8%
PT [8]: 15.9 s
Plat [8]: 117.5 x10_4/uL
RBC [8]: 688.8 x10_4/ul
Ret [8]: 3.8%
WBC [8]: 116.1 x10_2/uL
APTT [9]: 24.5 s
Bas [9]: 0%
Eos [9]: 1.2%
Fbg [9]: 311.4 mg/dL
Hb [9]: 14.6 g/dL
Ht [9]: 42.7%
Lym [9]: 81.4%
MCHC [9]: 34.1%
MCV [9]: 56.4 fL
Mono [9]: 3%
PT [9]: 16 s
Plat [9]: 104.7 x10_4/uL
RBC [9]: 757.6 x10_4/ul
Ret [9]: 2.2%
WBC [9]: 114.2 x10_2/uL
KIDNEY_L [4]: 1.1 g
KIDNEY_R [4]: 1.1 g
KIDNEY_TOTAL [4]: 2.2 g
KIDNEY_L [5]: 1.2 g
KIDNEY_R [5]: 1.2 g
KIDNEY_TOTAL [5]: 2.3 g
KIDNEY_L [6]: 1.3 g
KIDNEY_R [6]: 1.3 g
KIDNEY_TOTAL [6]: 2.7 g
LIVER [4]: 12.3 g
LIVER [6]: 15.5 g
ALP [10]: 1680.4 IU/L
ALT [10]: 40.2 IU/L
BUN [10]: 17.6 mg/dL
CRE [10]: 0.2 mg/dL
DBIL [10]: 0 mg/dL
IP [10]: 7.2 mg/dL
K [10]: 4.3 meq/L
LDH [10]: 185.6 IU/L
PL [10]: 135.8 mg/dL
RALB [10]: 2.9 g/dL
TBIL [10]: 0.002 mg/dL
TC [10]: 69.2 mg/dL
TG [10]: 124.6 mg/dL
TP [10]: 5.4 g/dL
gamma-GTP [10]: 2.2 IU/L
ALP [11]: 1400.6 IU/L
ALT [11]: 41.2 IU/L
AST [11]: 81.4 IU/L
BUN [11]: 19 mg/dL
CRE [11]: 0.2 mg/dL
DBIL [11]: 0 mg/dL
GLC [11]: 182.2 mg/dL
IP [11]: 7.2 mg/dL
K [11]: 4.3 meq/L
LDH [11]: 164.4 IU/L
PL [11]: 146.8 mg/dL
RALB [11]: 3.1 g/dL
TBIL [11]: 0.002 mg/dL
TC [11]: 70.4 mg/dL
TG [11]: 117.6 mg/dL
TP [11]: 5.8 g/dL
gamma-GTP [11]: 1.8 IU/L
ALP [12]: 1048.2 IU/L
ALT [12]: 37.8 IU/L
AST [12]: 65.2 IU/L
BUN [12]: 19.2 mg/dL
CRE [12]: 0.2 mg/dL
DBIL [12]: 0 mg/dL
GLC [12]: 196.6 mg/dL
IP [12]: 6.4 mg/dL
K [12]: 4.2 meq/L
LDH [12]: 130.2 IU/L
RALB [12]: 3.1 g/dL
TBIL [12]: 0.004 mg/dL
TC [12]: 74.2 mg/dL
TG [12]: 141.8 mg/dL
TP [12]: 6 g/dL
gamma-GTP [12]: 2.8 IU/L
APTT [13]: 23.7 s
Bas [13]: 0%
Eos [13]: 1%
Fbg [13]: 288.4 mg/dL
Ht [13]: 40.9%
Lym [13]: 87%
MCHC [13]: 33%
MCV [13]: 61.4 fL
Mono [13]: 2.2%
Neu [13]: 9%
PT [13]: 15.7 s
Plat [13]: 137 x10_4/uL
RBC [13]: 667 x10_4/ul
Ret [13]: 2.5%
WBC [13]: 69.2 x10_2/uL
KIDNEY_L [14]: 0.9 g
KIDNEY_R [14]: 1 g
KIDNEY_TOTAL [14]: 1.9 g
LIVER [14]: 8.7 g
ALP [15]: 1528.2 IU/L
AST [15]: 75.8 IU/L
CRE [15]: 0.2 mg/dL
Ca [15]: 11 mg/dL
DBIL [15]: 0.002 mg/dL
GLC [15]: 180.8 mg/dL
IP [15]: 7.3 mg/dL
K [15]: 4.3 meq/L
LDH [15]: 270.4 IU/L
PL [15]: 132.6 mg/dL
RALB [15]: 3.1 g/dL
TBIL [15]: 0.026 mg/dL
TG [15]: 54.8 mg/dL
TP [15]: 5.6 g/dL
gamma-GTP [15]: 1.4 IU/L
TERMINAL_BW [16]: 219.4 g
TERMINAL_BW [17]: 226 g
TERMINAL_BW [18]: 172 g
APTT [19]: 27.5 s
Bas [19]: 0%
Eos [19]: 0.8%
Fbg [19]: 299.8 mg/dL
Hb [19]: 14.3 g/dL
Ht [19]: 42.4%
Lym [19]: 82.8%
MCHC [19]: 33.6%
MCV [19]: 59.8 fL
Mono [19]: 3.6%
Neu [19]: 11.4%
PT [19]: 16 s
Plat [19]: 136.4 x10_4/uL
RBC [19]: 708.8 x10_4/ul
Ret [19]: 1%
WBC [19]: 54.2 x10_2/uL
APTT [20]: 26.8 s
Bas [20]: 0%
Eos [20]: 0.4%
Fbg [20]: 276.4 mg/dL
Hb [20]: 14.9 g/dL
Ht [20]: 43.4%
Lym [20]: 80.8%
MCHC [20]: 34.3%
MCV [20]: 58.8 fL
Mono [20]: 4%
Neu [20]: 13.4%
PT [20]: 15.3 s
Plat [20]: 68.4 x10_4/uL
RBC [20]: 739 x10_4/ul
Ret [20]: 0.4%
WBC [20]: 50.8 x10_2/uL
APTT [21]: 17.9 s
Bas [21]: 0%
Eos [21]: 0%
Fbg [21]: 270 mg/dL
Hb [21]: 12.1 g/dL
Ht [21]: 33%
Lym [21]: 77%
MCH [21]: 18.5 pg
MCHC [21]: 36.7%
MCV [21]: 50.5 fL
Mono [21]: 3%
Neu [21]: 20%
PT [21]: 16.9 s
Plat [21]: 3.1 x10_4/uL
RBC [21]: 653 x10_4/ul
Ret [21]: 0.1%
WBC [21]: 32.4 x10_2/uL
KIDNEY_L [16]: 1 g
KIDNEY_R [16]: 1 g
KIDNEY_TOTAL [16]: 2 g
KIDNEY_L [17]: 1.3 g
KIDNEY_R [17]: 1.3 g
KIDNEY_TOTAL [17]: 2.6 g
KIDNEY_L [18]: 2.8 g
KIDNEY_R [18]: 2.8 g
KIDNEY_TOTAL [18]: 5.6 g
LIVER [16]: 10 g
LIVER [17]: 8.8 g
LIVER [18]: 6.8 g
ALP [22]: 1309.4 IU/L
ALT [22]: 31.2 IU/L
AST [22]: 79 IU/L
BUN [22]: 18.4 mg/dL
CRE [22]: 0.2 mg/dL
DBIL [22]: 0.002 mg/dL
GLC [22]: 170.8 mg/dL
IP [22]: 5.9 mg/dL
K [22]: 4.1 meq/L
LDH [22]: 247.4 IU/L
PL [22]: 118.8 mg/dL
RALB [22]: 3.2 g/dL
TBIL [22]: 0.02 mg/dL
TC [22]: 63.4 mg/dL
TG [22]: 64.2 mg/dL
TP [22]: 5.8 g/dL
gamma-GTP [22]: 1.6 IU/L
ALP [23]: 720.4 IU/L
ALT [23]: 37.6 IU/L
AST [23]: 102.8 IU/L
BUN [23]: 42.2 mg/dL
CRE [23]: 0.5 mg/dL
DBIL [23]: 0.002 mg/dL
GLC [23]: 165.8 mg/dL
IP [23]: 5.5 mg/dL
K [23]: 4.2 meq/L
LDH [23]: 248.4 IU/L
PL [23]: 134.8 mg/dL
RALB [23]: 3.1 g/dL
TBIL [23]: 0.006 mg/dL
TC [23]: 86 mg/dL
TG [23]: 43 mg/dL
TP [23]: 5.8 g/dL
gamma-GTP [23]: 3.8 IU/L
ALP [24]: 311 IU/L
ALT [24]: 47 IU/L
AST [24]: 125 IU/L
BUN [24]: 332 mg/dL
CRE [24]: 3.6 mg/dL
Ca [24]: 9.1 mg/dL
Cl [24]: 93 meq/L
DBIL [24]: 0.01 mg/dL
GLC [24]: 210 mg/dL
IP [24]: 11.7 mg/dL
K [24]: 5.4 meq/L
LDH [24]: 2660 IU/L
Na [24]: 129 meq/L
PL [24]: 140 mg/dL
RALB [24]: 2.3 g/dL
TBIL [24]: 0 mg/dL
TC [24]: 77 mg/dL
TG [24]: 91 mg/dL
TP [24]: 4.5 g/dL
gamma-GTP [24]: 2 IU/L
